From ChEMBL document CHEMBL4507319 (2021)
Active and inactive are the calls of the source. The calls are words filed in the database; no cut-off is given here.

What was measured:
[1] = target: Mast/stem cell growth factor receptor Kit (Homo sapiens) (UniProt P10721); assay: cKit(h) Eurofins kinase panel; details: Compound concentration 1.0 uM
[2] = target: PI3-kinase p110-delta/p85-alpha (Homo sapiens) (UniProt P27986+O00329); assay: PI3 Kinase(p110d/p85a)(h) Eurofins kinase panel; format: protein-complex assay; details: Compound concentration 1.0 uM
[3] = target: Ribosomal protein S6 kinase alpha-1 (Homo sapiens, UniProt Q15418); assay: Eurofins kinase panel (RPS6KA1); design: compound concentration 1 uM
Chain of Ribosomal protein S6 kinase alpha-1 (Q15418 whole entry): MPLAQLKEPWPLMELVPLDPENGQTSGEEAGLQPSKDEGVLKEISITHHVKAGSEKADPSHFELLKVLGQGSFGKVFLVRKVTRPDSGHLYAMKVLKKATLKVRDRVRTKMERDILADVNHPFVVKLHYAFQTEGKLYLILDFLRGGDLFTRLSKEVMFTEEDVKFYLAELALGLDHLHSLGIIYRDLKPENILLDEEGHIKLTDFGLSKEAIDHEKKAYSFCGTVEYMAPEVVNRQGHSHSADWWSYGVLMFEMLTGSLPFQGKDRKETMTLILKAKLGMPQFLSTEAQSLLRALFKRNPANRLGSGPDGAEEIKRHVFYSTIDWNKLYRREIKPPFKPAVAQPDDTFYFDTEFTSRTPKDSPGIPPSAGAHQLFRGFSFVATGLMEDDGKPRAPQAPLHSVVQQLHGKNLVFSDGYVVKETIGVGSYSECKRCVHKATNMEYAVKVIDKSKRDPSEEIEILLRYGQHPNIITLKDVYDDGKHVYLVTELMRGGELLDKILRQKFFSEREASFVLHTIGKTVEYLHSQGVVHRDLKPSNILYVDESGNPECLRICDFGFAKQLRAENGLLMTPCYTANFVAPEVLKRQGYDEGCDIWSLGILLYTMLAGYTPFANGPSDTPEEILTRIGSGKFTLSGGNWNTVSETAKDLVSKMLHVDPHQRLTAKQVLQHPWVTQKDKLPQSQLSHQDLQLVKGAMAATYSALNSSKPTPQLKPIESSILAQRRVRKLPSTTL

[4] = target: T1, Serine/threonine-protein kinase 4 (Homo sapiens) (UniProt Q13043); assay: MST1(h) Eurofins kinase panel; details: Compound concentration 1.0 uM
T1 sequence (whole entry): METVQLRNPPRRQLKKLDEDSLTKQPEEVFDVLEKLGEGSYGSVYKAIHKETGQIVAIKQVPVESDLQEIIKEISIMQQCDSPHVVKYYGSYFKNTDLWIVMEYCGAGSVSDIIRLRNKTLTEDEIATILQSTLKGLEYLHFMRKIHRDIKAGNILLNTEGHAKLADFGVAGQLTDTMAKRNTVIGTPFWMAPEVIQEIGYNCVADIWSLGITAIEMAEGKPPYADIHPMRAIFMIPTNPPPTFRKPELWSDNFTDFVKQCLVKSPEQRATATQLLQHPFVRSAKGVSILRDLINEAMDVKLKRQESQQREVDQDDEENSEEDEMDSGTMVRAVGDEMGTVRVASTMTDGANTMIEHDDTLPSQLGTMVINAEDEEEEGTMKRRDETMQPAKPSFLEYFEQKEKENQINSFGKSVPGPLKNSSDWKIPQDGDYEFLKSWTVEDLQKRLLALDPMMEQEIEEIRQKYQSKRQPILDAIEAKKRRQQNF

[5] = target: Dual specificity tyrosine-phosphorylation-regulated kinase 1A (Homo sapiens) (UniProt Q13627); assay: DYRK1A(h) Eurofins kinase panel; details: Compound concentration 1.0 uM
[6] = target: Ribosomal protein S6 kinase alpha-5 (Homo sapiens, UniProt O75582); details: Compound concentration 1.0 uM
[7] = target: T2, Ephrin type-A receptor 8 (Homo sapiens) (UniProt P29322); assay: EphA8(h) Eurofins kinase panel; details: Compound concentration 1.0 uM
T2 sequence (whole entry): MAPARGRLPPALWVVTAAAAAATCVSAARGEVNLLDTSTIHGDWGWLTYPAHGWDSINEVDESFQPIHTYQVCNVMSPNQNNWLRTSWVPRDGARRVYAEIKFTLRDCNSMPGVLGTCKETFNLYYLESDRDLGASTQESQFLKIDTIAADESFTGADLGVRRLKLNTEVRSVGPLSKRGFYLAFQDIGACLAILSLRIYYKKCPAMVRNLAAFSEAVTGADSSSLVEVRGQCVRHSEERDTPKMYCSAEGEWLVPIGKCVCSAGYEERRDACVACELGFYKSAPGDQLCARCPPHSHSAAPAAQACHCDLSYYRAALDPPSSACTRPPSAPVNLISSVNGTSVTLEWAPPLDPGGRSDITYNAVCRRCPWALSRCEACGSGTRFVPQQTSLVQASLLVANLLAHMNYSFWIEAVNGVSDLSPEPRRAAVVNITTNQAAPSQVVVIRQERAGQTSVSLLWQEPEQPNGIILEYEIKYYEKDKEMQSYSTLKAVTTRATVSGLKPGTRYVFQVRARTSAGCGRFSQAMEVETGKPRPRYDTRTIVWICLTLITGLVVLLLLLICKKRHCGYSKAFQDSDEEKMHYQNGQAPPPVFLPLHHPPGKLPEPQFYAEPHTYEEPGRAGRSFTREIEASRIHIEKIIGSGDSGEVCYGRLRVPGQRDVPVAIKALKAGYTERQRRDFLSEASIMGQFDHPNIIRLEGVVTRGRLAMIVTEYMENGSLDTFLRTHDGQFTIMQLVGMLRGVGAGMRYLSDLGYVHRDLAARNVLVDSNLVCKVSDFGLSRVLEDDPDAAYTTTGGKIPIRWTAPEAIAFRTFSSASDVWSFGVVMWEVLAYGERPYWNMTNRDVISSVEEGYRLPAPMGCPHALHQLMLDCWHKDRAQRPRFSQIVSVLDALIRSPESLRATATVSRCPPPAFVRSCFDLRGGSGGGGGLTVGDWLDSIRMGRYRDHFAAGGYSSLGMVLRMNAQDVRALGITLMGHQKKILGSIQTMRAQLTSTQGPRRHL

[8] = target: Serine/threonine-protein kinase pim-3 (Homo sapiens) (UniProt Q86V86); assay: Pim-3(h) Eurofins kinase panel; details: Compound concentration 1.0 uM
[9] = target: Serine/threonine-protein kinase SIK3 (Homo sapiens) (UniProt Q9Y2K2); assay: SIK3(h) Eurofins kinase panel; details: Compound concentration 1.0 uM
Chain of Serine/threonine-protein kinase SIK3 (Homo sapiens) (Q9Y2K2 whole entry, looked up): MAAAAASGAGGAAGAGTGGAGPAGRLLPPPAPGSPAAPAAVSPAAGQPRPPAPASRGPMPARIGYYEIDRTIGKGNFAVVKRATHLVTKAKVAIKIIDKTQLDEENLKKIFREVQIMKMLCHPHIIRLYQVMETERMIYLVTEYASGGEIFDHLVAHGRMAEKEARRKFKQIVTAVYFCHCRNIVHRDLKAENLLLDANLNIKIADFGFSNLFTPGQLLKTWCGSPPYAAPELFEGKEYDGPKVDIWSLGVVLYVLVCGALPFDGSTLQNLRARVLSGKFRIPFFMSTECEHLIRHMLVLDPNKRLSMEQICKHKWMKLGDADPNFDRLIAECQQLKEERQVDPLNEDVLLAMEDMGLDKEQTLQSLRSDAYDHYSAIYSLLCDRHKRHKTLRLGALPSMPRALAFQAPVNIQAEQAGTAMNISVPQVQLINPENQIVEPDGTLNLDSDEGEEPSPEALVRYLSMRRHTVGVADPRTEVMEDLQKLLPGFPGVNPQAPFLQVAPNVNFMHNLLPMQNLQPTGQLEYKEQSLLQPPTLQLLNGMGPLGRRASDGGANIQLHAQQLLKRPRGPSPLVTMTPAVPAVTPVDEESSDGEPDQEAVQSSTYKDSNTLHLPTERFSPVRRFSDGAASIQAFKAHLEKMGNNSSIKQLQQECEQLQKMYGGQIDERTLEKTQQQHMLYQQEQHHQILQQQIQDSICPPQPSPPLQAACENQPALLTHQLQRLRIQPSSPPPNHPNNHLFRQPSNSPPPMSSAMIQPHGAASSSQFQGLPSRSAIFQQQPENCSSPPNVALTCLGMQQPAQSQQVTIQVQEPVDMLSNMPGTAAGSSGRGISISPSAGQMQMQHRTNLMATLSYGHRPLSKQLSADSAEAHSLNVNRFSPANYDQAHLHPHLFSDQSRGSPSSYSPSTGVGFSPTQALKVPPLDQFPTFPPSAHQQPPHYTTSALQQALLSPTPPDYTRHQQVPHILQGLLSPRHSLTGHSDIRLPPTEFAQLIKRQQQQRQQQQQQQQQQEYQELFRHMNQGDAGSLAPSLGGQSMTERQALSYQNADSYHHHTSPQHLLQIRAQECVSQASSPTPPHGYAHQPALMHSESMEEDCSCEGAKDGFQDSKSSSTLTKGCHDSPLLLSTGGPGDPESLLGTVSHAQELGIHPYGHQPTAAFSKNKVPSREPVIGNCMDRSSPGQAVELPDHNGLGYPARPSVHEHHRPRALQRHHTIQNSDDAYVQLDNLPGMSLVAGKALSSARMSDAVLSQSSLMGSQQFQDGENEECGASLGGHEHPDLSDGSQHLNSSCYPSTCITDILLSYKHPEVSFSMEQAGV

[10] = target: TRAF2 and NCK-interacting protein kinase (Homo sapiens) (UniProt Q9UKE5); assay: TNIK(h) Eurofins kinase panel; details: Compound concentration 1.0 uM
Chain of TRAF2 and NCK-interacting protein kinase (Homo sapiens) (Q9UKE5 whole entry, looked up): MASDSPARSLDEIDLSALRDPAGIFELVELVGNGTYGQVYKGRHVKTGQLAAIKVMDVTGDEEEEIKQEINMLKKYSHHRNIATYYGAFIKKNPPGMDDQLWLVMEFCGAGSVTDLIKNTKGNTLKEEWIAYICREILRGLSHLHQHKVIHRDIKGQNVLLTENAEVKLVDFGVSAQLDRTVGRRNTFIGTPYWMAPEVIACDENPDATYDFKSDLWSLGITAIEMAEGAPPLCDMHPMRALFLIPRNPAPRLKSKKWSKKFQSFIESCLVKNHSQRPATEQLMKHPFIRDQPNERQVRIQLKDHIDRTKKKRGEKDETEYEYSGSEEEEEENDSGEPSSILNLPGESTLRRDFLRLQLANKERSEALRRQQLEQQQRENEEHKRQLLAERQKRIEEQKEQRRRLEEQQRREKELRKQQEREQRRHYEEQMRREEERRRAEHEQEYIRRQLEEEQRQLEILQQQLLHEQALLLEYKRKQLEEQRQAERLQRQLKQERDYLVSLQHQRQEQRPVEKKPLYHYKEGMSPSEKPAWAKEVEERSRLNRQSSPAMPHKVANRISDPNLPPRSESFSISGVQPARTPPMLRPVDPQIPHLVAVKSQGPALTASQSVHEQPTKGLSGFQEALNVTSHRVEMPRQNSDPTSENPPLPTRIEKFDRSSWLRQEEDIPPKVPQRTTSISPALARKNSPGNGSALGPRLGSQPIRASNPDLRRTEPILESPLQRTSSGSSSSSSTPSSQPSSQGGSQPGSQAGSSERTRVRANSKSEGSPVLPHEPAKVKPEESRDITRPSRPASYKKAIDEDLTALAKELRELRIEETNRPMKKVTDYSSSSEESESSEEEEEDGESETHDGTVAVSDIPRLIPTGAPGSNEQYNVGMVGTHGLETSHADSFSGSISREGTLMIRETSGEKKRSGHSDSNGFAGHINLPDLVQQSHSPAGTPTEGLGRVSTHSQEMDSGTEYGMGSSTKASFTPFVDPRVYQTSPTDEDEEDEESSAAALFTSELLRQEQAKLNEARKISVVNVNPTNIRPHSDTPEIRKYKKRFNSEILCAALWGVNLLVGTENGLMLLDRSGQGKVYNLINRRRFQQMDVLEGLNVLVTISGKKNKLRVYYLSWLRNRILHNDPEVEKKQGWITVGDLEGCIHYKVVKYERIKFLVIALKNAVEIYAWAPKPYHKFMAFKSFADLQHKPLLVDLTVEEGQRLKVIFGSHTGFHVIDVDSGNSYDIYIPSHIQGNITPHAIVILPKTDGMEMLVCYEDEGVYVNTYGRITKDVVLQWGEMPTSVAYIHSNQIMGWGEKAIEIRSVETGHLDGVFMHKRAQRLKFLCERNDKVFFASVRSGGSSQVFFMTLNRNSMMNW

[11] = target: T3, Serine/threonine-protein kinase DCLK3 (Homo sapiens) (UniProt Q9C098); assay: DCAMKL3(h) Eurofins kinase panel; details: Compound concentration 1.0 uM
T3 sequence (whole entry): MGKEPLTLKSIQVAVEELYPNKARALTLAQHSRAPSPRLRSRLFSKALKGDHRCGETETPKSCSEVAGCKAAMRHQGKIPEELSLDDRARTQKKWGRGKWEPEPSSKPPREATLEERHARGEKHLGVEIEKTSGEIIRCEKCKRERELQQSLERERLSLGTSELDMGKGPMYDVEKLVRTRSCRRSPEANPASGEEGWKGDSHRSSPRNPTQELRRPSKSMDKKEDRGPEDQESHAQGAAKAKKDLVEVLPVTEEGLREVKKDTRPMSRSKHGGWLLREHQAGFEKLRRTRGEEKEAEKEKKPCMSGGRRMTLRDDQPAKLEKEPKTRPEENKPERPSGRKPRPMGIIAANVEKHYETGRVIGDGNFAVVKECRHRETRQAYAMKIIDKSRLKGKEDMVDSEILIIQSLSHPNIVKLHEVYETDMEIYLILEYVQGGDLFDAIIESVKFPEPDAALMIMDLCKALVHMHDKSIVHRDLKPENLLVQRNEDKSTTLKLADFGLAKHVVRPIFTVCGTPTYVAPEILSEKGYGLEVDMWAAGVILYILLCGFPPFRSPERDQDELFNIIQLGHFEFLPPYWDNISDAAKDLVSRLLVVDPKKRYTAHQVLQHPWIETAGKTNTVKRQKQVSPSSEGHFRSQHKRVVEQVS

[12] = target: Protein kinase C gamma type (Homo sapiens) (UniProt P05129); assay: PKCgamma(h) Eurofins kinase panel; details: Compound concentration 1.0 uM
[13] = target: Serine/threonine-protein kinase PLK3 (Homo sapiens) (UniProt Q9H4B4); assay: Plk3(h) Eurofins kinase panel; details: Compound concentration 1.0 uM
Chain of Serine/threonine-protein kinase PLK3 (Homo sapiens) (Q9H4B4 whole entry, looked up): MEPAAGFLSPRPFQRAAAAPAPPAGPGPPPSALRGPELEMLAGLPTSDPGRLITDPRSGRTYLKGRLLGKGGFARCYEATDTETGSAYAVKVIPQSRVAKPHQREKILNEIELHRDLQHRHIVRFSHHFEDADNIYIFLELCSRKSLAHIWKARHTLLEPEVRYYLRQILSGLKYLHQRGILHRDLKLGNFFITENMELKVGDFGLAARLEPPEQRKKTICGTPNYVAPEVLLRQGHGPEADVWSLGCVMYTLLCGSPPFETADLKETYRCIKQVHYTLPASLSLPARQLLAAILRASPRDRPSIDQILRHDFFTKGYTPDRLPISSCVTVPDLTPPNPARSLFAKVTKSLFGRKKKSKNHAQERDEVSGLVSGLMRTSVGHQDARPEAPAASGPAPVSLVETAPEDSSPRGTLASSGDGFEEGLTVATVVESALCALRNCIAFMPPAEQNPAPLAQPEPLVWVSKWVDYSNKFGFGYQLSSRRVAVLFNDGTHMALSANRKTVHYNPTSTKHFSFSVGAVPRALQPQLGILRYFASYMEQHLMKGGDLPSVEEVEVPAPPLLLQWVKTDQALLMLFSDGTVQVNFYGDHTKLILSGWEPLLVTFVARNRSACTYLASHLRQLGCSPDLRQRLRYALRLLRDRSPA

[14] = target: Calcium/calmodulin-dependent protein kinase type 1D (Homo sapiens) (UniProt Q8IU85); assay: CaMKIdelta(h) Eurofins kinase panel; details: Compound concentration 1.0 uM
[15] = target: Ribosomal protein S6 kinase alpha-4 (Homo sapiens) (UniProt O75676); details: Compound concentration 1000.0 nM

Row | Structure (SMILES) | % residual kinase activity [1] [%] | % residual kinase activity [2] [%] | IC50 [3] | % residual kinase activity [4] [%] | % residual kinase activity [5] [%] | % residual kinase activity [6] [%] | % residual kinase activity [7] [%] | % residual kinase activity [8] [%] | % residual kinase activity [9] [%] | % residual kinase activity [10] [%] | % residual kinase activity [11] [%] | % residual kinase activity [12] [%] | % residual kinase activity [13] [%] | % residual kinase activity [14] [%] | residual activity [15] [%]
1 | CCc1ccccc1C(=O)Nc1n[nH]c2c(C)c(F)c(C3C(C#N)=C(C)N(C)C(C)=C3C#N)cc12 [BAY-3827] | 101 | 103 | 9.1 nM (active) | 73 | 107 | 10 | 102 | 108 | 84 | 49 | 100 | 47 | 127 | 104 | –
2 | CC1=C(C#N)C(c2ccc3c(c2)c(NC(=O)c2ccccc2C)nn3C)C(C#N)=C(C)N1 [BAY-974] | – | – | – | – | – | – | – | – | – | – | – | – | – | – | 100
